# Experimental data published in patent US6358885B1, “Substituted phenylheterocyclic herbicides” (Mississippi State University, priority 1992, dated 2002).
# Assays:
# Test in all cases: Test G preemergence/postemergence greenhouse plant response rating 0 to 100
# alfalfa = format: in vivo, Medicago ativa; settings: 0 to 100 scale
# Text: (§1) Seeds, rhizomes, or plant parts of alfalfa (Medicago ativa), annual bluegrass (Poa annua), bermudagrass (Cynodon dactylon), broadleaf signalgrass (Brachiaria plantaginea), common purslane (Portulaca oleracea), common ragweed (Ambrosia elatior), […] (Paspalum dilatatum), goosegrass (Eleusine indica), guineagrass (Panicum maximum), […] exaltata), johnsongrass (Sorghum halepense), large crabgrass (Digitaria sanguinalis), peanut (Arachis hypoagaea), pitted morningglory (Ipomoea lacunosa), purple nutsedge (Cyperus rotundus), sandbur (Cenchrus echinatus), smooth crabgrass (Digitaria ischaemum) and yellow nutsedge (Cyperus esculentus) were planted into greenhouse pots containing greenhouse planting medium. Each pot contained only one plant species. The test compound was dissolved in a non-phytotoxic solvent and applied preemergence and/or postemergence to the plants. Preemergence applications were made within one day of planting the seeds or plant parts. Postemergence applications were applied when the plants were in the two to four leaf stage (three to twenty cm). Test chemicals were dissolved in a non-phytotoxic solvent and applied preemergence and postemergence to the plants. Untreated control plants and treated plants were placed in the greenhouse and visually evaluated for injury at 13 to 21 days after herbicide application. […] A dash (-) response indicates no test result.
# annual bluegrass = format: in vivo, Poa annua; settings: 0 to 100 scale
# Text: as §1
# bermudagrass = format: in vivo, Cynodon dactylon; settings: 0 to 100 scale
# Text: as §1
# broadleaf signalgrass = format: in vivo, Brachiaria plantaginea; settings: 0 to 100 scale
# Text: as §1
# common purslane = format: in vivo, Portulaca oleracea; settings: 0 to 100 scale
# Text: as §1
# common ragweed = format: in vivo, Ambrosia elatior; settings: 0 to 100 scale
# Text: as §1
# goosegrass = format: in vivo, Eleusine indica; settings: 0 to 100 scale
# Text: as §1
# guineagrass = format: in vivo, Panicum maximum; settings: 0 to 100 scale
# Text: as §1
# itchgrass = format: in vivo, Rottboellia exaltata; settings: 0 to 100 scale
# Text: as §1
# johnsongrass = format: in vivo, Sorghum halepense; settings: 0 to 100 scale
# Text: as §1
# large crabgrass = format: in vivo, Digitaria sanguinalis; settings: 0 to 100 scale
# Text: as §1
# peanut = format: in vivo, Arachis hypoagaea; settings: 0 to 100 scale
# Text: as §1
# pitted morningglory = format: in vivo, Ipomoea lacunosa; settings: 0 to 100 scale
# Text: as §1
# sandbur = format: in vivo, Cenchrus echinatus; settings: 0 to 100 scale
# Text: as §1
# smooth crabgrass = format: in vivo, Digitaria ischaemum; settings: 0 to 100 scale
# Text: as §1
# yellow nutsedge = format: in vivo, Cyperus esculentus; settings: Rate 125 g/ha, 0 to 100 scale
# Text: as §1
compound,measurement,setting,value
Fc1cc(Cl)c(OC2CCCC2)cc1-c1nn2c(c1Cl)CCCC2 [Compound 24],"Plant response rating, Alfalfa Var.","alfalfa; POSTEMERGENCE, Rate 125 g/ha",0
same,"Plant response rating, Alfalfa Var.","alfalfa; POSTEMERGENCE, Rate 250 g/ha",20
same,"Plant response rating, Alfalfa Var.","alfalfa; PREEMERGENCE, Rate 125 g/ha",0
same,"Plant response rating, Alfalfa Var.","alfalfa; PREEMERGENCE, Rate 250 g/ha",0
same,"Plant response rating, Ann Bluegrass","annual bluegrass; POSTEMERGENCE, Rate 125 g/ha",0
same,"Plant response rating, Ann Bluegrass","annual bluegrass; POSTEMERGENCE, Rate 250 g/ha",0
same,"Plant response rating, Ann Bluegrass","annual bluegrass; PREEMERGENCE, Rate 125 g/ha",30
same,"Plant response rating, Ann Bluegrass","annual bluegrass; PREEMERGENCE, Rate 250 g/ha",0
same,"Plant response rating, Bermudagrass","bermudagrass; POSTEMERGENCE, Rate 125 g/ha",0
same,"Plant response rating, Bermudagrass","bermudagrass; POSTEMERGENCE, Rate 250 g/ha",0
same,"Plant response rating, Bermudagrass","bermudagrass; PREEMERGENCE, Rate 125 g/ha",30
same,"Plant response rating, Bermudagrass","bermudagrass; PREEMERGENCE, Rate 250 g/ha",0
same,"Plant response rating, Brdlf Sgnlgrass","broadleaf signalgrass; POSTEMERGENCE, Rate 125 g/ha",0
same,"Plant response rating, Brdlf Sgnlgrass","broadleaf signalgrass; POSTEMERGENCE, Rate 250 g/ha",0
same,"Plant response rating, Brdlf Sgnlgrass","broadleaf signalgrass; PREEMERGENCE, Rate 125 g/ha",100
same,"Plant response rating, Brdlf Sgnlgrass","broadleaf signalgrass; PREEMERGENCE, Rate 250 g/ha",0
same,"Plant response rating, Cmn Purslane","common purslane; POSTEMERGENCE, Rate 125 g/ha",80
same,"Plant response rating, Cmn Purslane","common purslane; POSTEMERGENCE, Rate 250 g/ha",70
same,"Plant response rating, Cmn Purslane","common purslane; PREEMERGENCE, Rate 125 g/ha",0
same,"Plant response rating, Cmn Purslane","common purslane; PREEMERGENCE, Rate 250 g/ha",0
same,"Plant response rating, Cmn Ragweed","common ragweed; POSTEMERGENCE, Rate 125 g/ha",50
same,"Plant response rating, Cmn Ragweed","common ragweed; POSTEMERGENCE, Rate 250 g/ha",0
same,"Plant response rating, Cmn Ragweed","common ragweed; PREEMERGENCE, Rate 125 g/ha",40
same,"Plant response rating, Cmn Ragweed","common ragweed; PREEMERGENCE, Rate 250 g/ha",0
same,"Plant response rating, Goosegrass","goosegrass; POSTEMERGENCE, Rate 125 g/ha",0
same,"Plant response rating, Goosegrass","goosegrass; POSTEMERGENCE, Rate 250 g/ha",0
same,"Plant response rating, Goosegrass","goosegrass; PREEMERGENCE, Rate 125 g/ha",90
same,"Plant response rating, Goosegrass","goosegrass; PREEMERGENCE, Rate 250 g/ha",40
same,"Plant response rating, Guineagrass","guineagrass; POSTEMERGENCE, Rate 125 g/ha",0
same,"Plant response rating, Guineagrass","guineagrass; POSTEMERGENCE, Rate 250 g/ha",0
same,"Plant response rating, Guineagrass","guineagrass; PREEMERGENCE, Rate 125 g/ha",0
same,"Plant response rating, Guineagrass","guineagrass; PREEMERGENCE, Rate 250 g/ha",0
same,"Plant response rating, Itchgrass","itchgrass; POSTEMERGENCE, Rate 125 g/ha",0
same,"Plant response rating, Itchgrass","itchgrass; POSTEMERGENCE, Rate 250 g/ha",0
same,"Plant response rating, Itchgrass","itchgrass; PREEMERGENCE, Rate 125 g/ha",100
same,"Plant response rating, Itchgrass","itchgrass; PREEMERGENCE, Rate 250 g/ha",20
same,"Plant response rating, Johnsongrass","johnsongrass; POSTEMERGENCE, Rate 125 g/ha",0
same,"Plant response rating, Johnsongrass","johnsongrass; POSTEMERGENCE, Rate 250 g/ha",0
same,"Plant response rating, Johnsongrass","johnsongrass; PREEMERGENCE, Rate 125 g/ha",0
same,"Plant response rating, Johnsongrass","johnsongrass; PREEMERGENCE, Rate 250 g/ha",0
same,"Plant response rating, Large Crabgrass","large crabgrass; POSTEMERGENCE, Rate 125 g/ha",0
same,"Plant response rating, Large Crabgrass","large crabgrass; POSTEMERGENCE, Rate 250 g/ha",0
same,"Plant response rating, Large Crabgrass","large crabgrass; PREEMERGENCE, Rate 125 g/ha",80
same,"Plant response rating, Large Crabgrass","large crabgrass; PREEMERGENCE, Rate 250 g/ha",90
same,"Plant response rating, Peanuts","peanut; POSTEMERGENCE, Rate 125 g/ha",0
same,"Plant response rating, Peanuts","peanut; POSTEMERGENCE, Rate 250 g/ha",0
same,"Plant response rating, Peanuts","peanut; PREEMERGENCE, Rate 125 g/ha",0
same,"Plant response rating, Peanuts","peanut; PREEMERGENCE, Rate 250 g/ha",0
same,"Plant response rating, Pit Morninglory","pitted morningglory; POSTEMERGENCE, Rate 125 g/ha",0
same,"Plant response rating, Pit Morninglory","pitted morningglory; POSTEMERGENCE, Rate 250 g/ha",30
same,"Plant response rating, Pit Morninglory","pitted morningglory; PREEMERGENCE, Rate 125 g/ha",0
same,"Plant response rating, Pit Morninglory","pitted morningglory; PREEMERGENCE, Rate 250 g/ha",50
same,"Plant response rating, S. Sandbur","sandbur; POSTEMERGENCE, Rate 125 g/ha",0
same,"Plant response rating, S. Sandbur","sandbur; POSTEMERGENCE, Rate 250 g/ha",0
same,"Plant response rating, S. Sandbur","sandbur; PREEMERGENCE, Rate 125 g/ha",40
same,"Plant response rating, S. Sandbur","sandbur; PREEMERGENCE, Rate 250 g/ha",0
same,"Plant response rating, Smooth Crabgras","smooth crabgrass; POSTEMERGENCE, Rate 125 g/ha",0
same,"Plant response rating, Smooth Crabgras","smooth crabgrass; POSTEMERGENCE, Rate 250 g/ha",0
same,"Plant response rating, Smooth Crabgras","smooth crabgrass; PREEMERGENCE, Rate 125 g/ha",0
same,"Plant response rating, Smooth Crabgras","smooth crabgrass; PREEMERGENCE, Rate 250 g/ha",0
same,"Plant response rating, Yellow Nutsedge",yellow nutsedge; POSTEMERGENCE,0
same,"Plant response rating, Yellow Nutsedge",yellow nutsedge; PREEMERGENCE,0
